Results: patent publication US20190119284A1, “ErbB Inhibitors and Uses Thereof” (The Regents of the University of California, priority 2016, published 2019)
Each block holds one compound with its values, some of them ahead of it.

Assays:
PRKACA = PRKACA (Homo sapiens, UniProt P17612); assay: Nanosyn in vitro kinase profiling: PRKACA; assay type: biochemical; settings: compound at 1 μM
[1] = molecular target: T1, mutationally activated forms of EGFR (Homo sapiens, UniProt P00533, DEL746-750); assay: EGFR phosphosite signaling in HCC 827 cells; assay type: cell-based; parameters: endogenous in cells; host or cells: HCC 827 (A1); settings: concentration giving near complete inhibition
T1 sequence (P00533 with tags, fused parts or gaps DEL746-750): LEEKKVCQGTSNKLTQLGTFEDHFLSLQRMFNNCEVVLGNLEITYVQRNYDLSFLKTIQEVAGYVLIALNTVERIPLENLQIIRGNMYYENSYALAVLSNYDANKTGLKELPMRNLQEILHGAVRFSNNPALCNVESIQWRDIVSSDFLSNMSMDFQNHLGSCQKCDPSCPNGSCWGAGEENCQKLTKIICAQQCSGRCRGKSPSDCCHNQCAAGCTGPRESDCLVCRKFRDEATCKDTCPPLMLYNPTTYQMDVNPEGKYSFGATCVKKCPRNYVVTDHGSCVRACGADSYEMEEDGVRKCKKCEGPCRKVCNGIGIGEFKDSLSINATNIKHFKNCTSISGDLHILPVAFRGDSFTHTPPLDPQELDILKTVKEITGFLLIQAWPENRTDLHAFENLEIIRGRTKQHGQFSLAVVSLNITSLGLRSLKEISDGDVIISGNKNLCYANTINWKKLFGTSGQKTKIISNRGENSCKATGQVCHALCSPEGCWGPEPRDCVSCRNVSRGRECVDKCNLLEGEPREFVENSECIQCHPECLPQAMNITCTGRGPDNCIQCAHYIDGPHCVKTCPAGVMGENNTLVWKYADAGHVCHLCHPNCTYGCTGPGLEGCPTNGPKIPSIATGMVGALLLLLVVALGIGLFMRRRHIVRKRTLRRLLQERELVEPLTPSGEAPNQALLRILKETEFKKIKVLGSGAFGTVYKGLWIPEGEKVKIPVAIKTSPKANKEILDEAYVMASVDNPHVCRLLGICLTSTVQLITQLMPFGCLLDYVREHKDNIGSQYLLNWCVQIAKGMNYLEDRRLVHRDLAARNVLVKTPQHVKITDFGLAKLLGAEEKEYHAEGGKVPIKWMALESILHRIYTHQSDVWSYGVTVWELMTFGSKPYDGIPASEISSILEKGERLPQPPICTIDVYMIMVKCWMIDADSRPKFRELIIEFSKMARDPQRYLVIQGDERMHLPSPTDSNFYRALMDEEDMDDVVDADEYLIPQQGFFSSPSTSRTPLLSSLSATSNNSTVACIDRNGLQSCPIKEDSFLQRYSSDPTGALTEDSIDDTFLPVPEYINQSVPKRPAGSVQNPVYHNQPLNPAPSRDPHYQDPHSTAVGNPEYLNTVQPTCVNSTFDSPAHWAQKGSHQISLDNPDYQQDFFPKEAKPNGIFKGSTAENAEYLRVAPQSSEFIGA

[2] = tested on: HER2/HER3 signaling in FaDu cells; assay: HER2/HER3 signaling in FaDu cells, 24 h; assay type: cell-based; settings: dose response 24 h, compared with lapatinib
Text: (§1) FIGS. 20A-20B. […] FIG. 20A. […] FIG. 20B.

[3] = molecular target: T1, mutationally activated forms of EGFR; assay: EGFR phosphosite signaling in NCI-H1650 cells; assay type: cell-based; parameters: endogenous in cells; host or cells: NCI-H1650 (A2); settings: concentration giving near complete inhibition
FaDu cells = assay: 72 h proliferation of FaDu cells; assay type: cell-based
Text: as §1

MAPK1 = MAPK1 (Homo sapiens, UniProt P28482); assay: Nanosyn in vitro kinase profiling: MAPK1; assay type: biochemical; settings: compound at 1 μM
Chain of MAPK1 (P28482 whole entry, species assumed): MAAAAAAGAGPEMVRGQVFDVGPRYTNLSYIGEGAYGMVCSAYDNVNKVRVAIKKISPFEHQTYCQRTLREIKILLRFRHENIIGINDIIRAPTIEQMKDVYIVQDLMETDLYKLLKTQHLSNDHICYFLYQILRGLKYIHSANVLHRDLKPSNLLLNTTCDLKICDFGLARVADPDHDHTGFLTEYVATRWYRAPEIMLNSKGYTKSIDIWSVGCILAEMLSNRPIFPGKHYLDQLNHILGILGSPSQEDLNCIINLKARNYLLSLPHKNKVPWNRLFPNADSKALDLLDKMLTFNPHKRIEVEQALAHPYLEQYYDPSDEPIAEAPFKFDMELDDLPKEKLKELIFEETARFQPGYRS

[4] = molecular target: T2, 2YF-VC/3wt + NRG Ba/F3 cells (Homo sapiens, UniProt P04626, DELINS776-776VC/Y1005F/Y1023F/Y1112F/Y1127F/Y1139F/Y1196F/Y1221F/Y1222F/Y1248F, cells depend on it); assay: Ba/F3 proliferation assay, 2YF-VC/3wt + NRG; assay type: cell-based; settings: Table 4; ± S.D., n = 2; read-out: IC50, 2YF-VC/3wt + NRG
T2 construct: reported HER2 oncogenic mutants in the HER2YF construct
Protocol: (§2) For the 2YF/3wt cells, the parental cells were first transduced with HER3 according to the protocol above and were then spun down at 500×g for 5 min and re-suspended in media supplemented with 10 ng/mL IL-3 and 3 μg/mL puromycin (Invitrogen). Cells were maintained in these conditions for seven days, passaging as required. After seven days the cells were spun down, washed with fresh media, and then used for a subsequent round of transduction according to the protocol above with HER2YF virus. […] The cells were maintained in these conditions for seven days, passaging as required. After seven days the cells were spun down, washed with fresh media, and then suspended in media supplemented with 10 ng/mL of NRG. Cells were maintained in these conditions for seven days to select for a NRG dependent population of 2YF/3wt Ba/F3 cells that were then maintained as described above. The same protocol was used for the 2YF-L755S/3wt, 2YF-YVMA/3wt, and 2YF-VC/3wt cell lines using the indicated constructs.
(§3) Proliferation Assays. […] The following day media was changed to fresh media that contained either DMSO or the indicated concentration of drug plus NRG (50 ng/mL final concentration) as indicated. […] For all normalized assays, proliferation was normalized to the DMSO control condition. […]

PI3K-ALPHA = PI3K-ALPHA (Homo sapiens, UniProt P42336); assay: Nanosyn in vitro kinase profiling: PI3K-ALPHA; assay type: biochemical; settings: compound at 1 μM
[5] = molecular target: T3, 2YF-L755S/3wt + NRG Ba/F3 cells (Homo sapiens, UniProt P04626, L755S/Y1005F/Y1023F/Y1112F/Y1127F/Y1139F/Y1196F/Y1221F/Y1222F/Y1248F, cells depend on it); assay: Ba/F3 proliferation assay, 2YF-L755S/3wt + NRG; assay type: cell-based; settings: Table 4; ± S.D., n = 2; read-out: IC50, 2YF-L755S/3wt + NRG
T3 construct: reported HER2 oncogenic mutants in the HER2YF construct
Protocol: as §2, §3

EPH-B4 = EPH-B4 (Homo sapiens, UniProt P54760); assay: Nanosyn in vitro kinase profiling: EPH-B4; assay type: biochemical
Chain of EPH-B4 (P54760 16-987, species assumed): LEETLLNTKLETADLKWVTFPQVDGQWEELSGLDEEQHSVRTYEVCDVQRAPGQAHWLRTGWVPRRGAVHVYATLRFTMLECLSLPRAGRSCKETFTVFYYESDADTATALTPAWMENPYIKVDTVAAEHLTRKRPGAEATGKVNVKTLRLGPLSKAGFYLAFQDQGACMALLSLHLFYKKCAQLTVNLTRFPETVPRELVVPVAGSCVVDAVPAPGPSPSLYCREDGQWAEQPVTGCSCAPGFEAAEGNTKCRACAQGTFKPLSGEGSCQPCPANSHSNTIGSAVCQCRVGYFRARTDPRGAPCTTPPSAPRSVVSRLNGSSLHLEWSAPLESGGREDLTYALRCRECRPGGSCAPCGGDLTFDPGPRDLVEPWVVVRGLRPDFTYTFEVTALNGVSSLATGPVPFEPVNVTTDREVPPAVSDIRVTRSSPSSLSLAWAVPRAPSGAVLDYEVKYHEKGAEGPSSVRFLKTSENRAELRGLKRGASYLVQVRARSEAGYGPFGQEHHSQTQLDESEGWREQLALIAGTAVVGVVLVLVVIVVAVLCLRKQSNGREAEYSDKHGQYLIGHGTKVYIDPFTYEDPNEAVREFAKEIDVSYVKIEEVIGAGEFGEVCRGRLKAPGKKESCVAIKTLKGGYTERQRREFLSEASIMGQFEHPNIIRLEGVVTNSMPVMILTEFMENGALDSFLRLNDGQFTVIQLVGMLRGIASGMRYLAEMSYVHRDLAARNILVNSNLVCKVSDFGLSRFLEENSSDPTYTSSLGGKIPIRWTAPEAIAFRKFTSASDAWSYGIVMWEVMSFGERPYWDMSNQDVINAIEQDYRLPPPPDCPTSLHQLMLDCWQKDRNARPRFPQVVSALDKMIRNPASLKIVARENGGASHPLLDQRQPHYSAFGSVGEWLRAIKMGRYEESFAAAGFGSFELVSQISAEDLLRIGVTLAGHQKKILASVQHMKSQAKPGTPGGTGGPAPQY
Protocol: (§4) This was confirmed by in vitro profiling against a panel of kinases, with compound 2 only showing potent inhibition of EGFR and Ab1 (Table 2).
(§5) In vitro Kinome Screen. In vitro profiling of compound 2 at 100 nM was conducted by Nanosyn.

TSSK1 = TSSK1 (Homo sapiens, UniProt Q9BXA7); assay: Nanosyn in vitro kinase profiling: TSSK1; assay type: biochemical
Chain of TSSK1 (Q9BXA7 whole entry, species assumed): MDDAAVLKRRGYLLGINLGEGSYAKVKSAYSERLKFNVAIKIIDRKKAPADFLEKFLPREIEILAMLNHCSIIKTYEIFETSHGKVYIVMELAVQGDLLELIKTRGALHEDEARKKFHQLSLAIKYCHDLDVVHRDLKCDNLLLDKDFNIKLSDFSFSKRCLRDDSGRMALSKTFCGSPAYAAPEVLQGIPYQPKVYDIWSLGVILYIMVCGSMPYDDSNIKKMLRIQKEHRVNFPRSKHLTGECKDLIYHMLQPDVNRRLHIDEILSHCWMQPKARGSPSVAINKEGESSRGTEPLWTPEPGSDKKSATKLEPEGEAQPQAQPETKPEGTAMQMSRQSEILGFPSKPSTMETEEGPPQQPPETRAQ
Protocol: as §4, §5

TIE2 = TIE2 (Homo sapiens, UniProt Q02763); assay: Nanosyn in vitro kinase profiling: TIE2; assay type: biochemical
Chain of TIE2 (Q02763 23-1124, species assumed): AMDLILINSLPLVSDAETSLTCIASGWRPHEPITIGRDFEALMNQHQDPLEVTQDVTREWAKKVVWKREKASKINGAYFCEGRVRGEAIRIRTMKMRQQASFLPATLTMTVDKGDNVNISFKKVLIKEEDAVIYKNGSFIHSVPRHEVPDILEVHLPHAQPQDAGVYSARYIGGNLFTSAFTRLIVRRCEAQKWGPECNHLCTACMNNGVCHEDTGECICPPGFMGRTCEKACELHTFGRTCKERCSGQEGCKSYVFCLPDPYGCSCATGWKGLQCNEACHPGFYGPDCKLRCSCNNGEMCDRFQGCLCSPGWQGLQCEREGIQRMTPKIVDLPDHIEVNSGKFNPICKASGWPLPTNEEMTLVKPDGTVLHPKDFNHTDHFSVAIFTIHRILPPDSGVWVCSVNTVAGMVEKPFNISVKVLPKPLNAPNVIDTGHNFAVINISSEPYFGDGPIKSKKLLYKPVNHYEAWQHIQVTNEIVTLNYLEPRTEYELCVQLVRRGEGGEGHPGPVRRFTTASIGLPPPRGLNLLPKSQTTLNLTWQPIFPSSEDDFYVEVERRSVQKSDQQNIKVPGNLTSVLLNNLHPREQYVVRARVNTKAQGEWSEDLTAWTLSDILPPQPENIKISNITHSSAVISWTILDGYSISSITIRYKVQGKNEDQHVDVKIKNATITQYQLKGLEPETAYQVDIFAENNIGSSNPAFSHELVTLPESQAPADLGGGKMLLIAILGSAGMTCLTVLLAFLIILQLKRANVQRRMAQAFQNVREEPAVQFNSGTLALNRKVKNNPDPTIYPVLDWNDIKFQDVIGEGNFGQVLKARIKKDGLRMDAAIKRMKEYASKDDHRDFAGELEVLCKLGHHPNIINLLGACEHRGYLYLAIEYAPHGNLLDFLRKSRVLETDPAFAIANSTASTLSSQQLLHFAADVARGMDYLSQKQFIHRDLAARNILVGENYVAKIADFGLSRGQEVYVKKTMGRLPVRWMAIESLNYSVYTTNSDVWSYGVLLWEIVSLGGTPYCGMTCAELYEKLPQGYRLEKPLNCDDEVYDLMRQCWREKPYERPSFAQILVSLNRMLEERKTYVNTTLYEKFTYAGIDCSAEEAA
Protocol: as §4, §5

wt HER2 or HER2 T798M = assay: HEK-293T cells transfected with wt HER2 or HER2 T798M; assay type: cell-based; settings: HER2 T798M vs wt, 1 nM-10 μM
[6] = tested on: Ba/F3 cell line panel (HER2YF/HER3); assay: 48 h proliferation of the Ba/F3 cell line panel (CellTiter-Glo); assay type: cell-based; settings: 48 h proliferation curves
Protocol: FIGS. 3A-3D. Design and execution of a high-throughput screen identifies a novel HER2/HER3 inhibitor. FIG. 3A: 2YF/3wt cells were incubated in the presence or absence of NRG for 48 h and proliferation was assessed by CellTiter-Glo (mean±SD, n=1). […] FIG. 3C: Structure and proliferation curves for hit compound 1 (also referred herein as compound 185) against the Ba/F3 cell line panel (mean±SD, n=3), FIG. 3D: Structure and proliferation curves for compound 2 (also referred to herein as compound 55A) against the panel of Ba/F3 cell lines (mean±SD, n=3).
FIGS. 4A-4F. Compound 2 is a selective Type I inhibitor for HER2. […] FIG. 4B: Thermal stabilization of the HER3 kinase domain by either compound 2 or ATP as determined by Thermofluor (mean±SD, n=3). FIGS. 4C-4D: The crystal structure of either erlotinib (FIG. 4C) or 2 (FIG. 4D) bound to EGFR V924R. The kinase domain in complex with compound 2 has been stabilized in the active confirmation by drug binding, despite the mutation—as evidenced by the ordered extension of the activation loop and the inward positioning of the α-C helix.
FIGS. 5A-5D. […] FIG. 5A: Chemical structure of compound 3 (also referred to herein as compound 178). FIG. 5B: Proliferation curves for compound 3 against the Ba/F3 cell line panel (mean±SD, n=3). […] FIG. 5D: The same assay in FIG. 2A was performed with compound 3 in SK-BR-3 cells.
FIG. 10. […]

- inhibition at 1 µM (PRKACA): 20%
- near complete inhibition of multiple phosphosites on EGFR [1]: less than 10 nM
- near complete inhibition of multiple phosphosites on EGFR [3]: less than 10 nM
- inhibition at 1 µM (MAPK1): -2%
- GI50 [4]: 7.7 ± 1 nM
- inhibition at 1 µM (PI3K-ALPHA): 6%
- GI50 [5]: 38.2 ± 2.9 nM
Compound: COc1ccc(-c2ccoc2)cc1Nc1ncnc2[nH]cc(-c3cc[nH]n3)c12 [compound 3, N-(5-(furan-3-yl)-2-methoxyphenyl)-5-(1H-pyrazol-3-yl)-7H-pyrrolo[2,3-d]pyrimidin-4-amine]
- inhibition of pHER3 and downstream signaling [2]: better able to inhibit pHER3 and its downstream signaling pathways
- inhibition of proliferation relative to current HER2 inhibitors (FaDu cells): more effective than current HER2 inhibitors

- inhibition at 0.1 µM (EPH-B4; compound at 100 nM): 3.44%
- inhibition at 1 µM (EPH-B4; compound at 1 μM): 21.7%
- inhibition at 0.1 µM (TSSK1; compound at 100 nM): 0.665%
- inhibition at 1 µM (TSSK1; compound at 1 μM): -3.06%
- inhibition at 0.1 µM (TIE2; compound at 100 nM): 12.8%
- inhibition at 1 µM (TIE2; compound at 1 μM): 59.7%
Compound: COc1ccc(-c2ccco2)cc1Nc1ncnc2[nH]nc(-c3ccco3)c12 [compound 2, 3-(furan-2-yl)-N-(5-(furan-2-yl)-2-methoxyphenyl)-1H-pyrazolo[3,4-d]pyrimidin-4-amine]
- effect of gatekeeper mutation on binding affinity (wt HER2 or HER2 T798M): reduces the binding affinity

Compound: CS(=O)(=O)CCNCc1ccc(-c2ccc3ncnc(Nc4ccc(OCc5cccc(F)c5)c(Cl)c4)c3c2)o1 [lapatinib]
- level of pathway inhibition distinguished by the Ba/F3 panel [6]: specifically inhibit signaling at the HER2/HER3 level
